Assay: ratings of trustworthiness and attractiveness of unfamiliar faces (FIG. 3)
Type: in vivo, human
Details: people under the influence of the hormone compared to control groups who were not
Description: As has been explained, the first set 14 of active ingredients create a reaction in the body that induces the production of hormones and/or pheromones. Hormones, such as oxytocin and its kind promote improved social behavior and enhances positive social perceptions of others. […] Oxytocin also masks negative personality perceptions that masculinized faces tend to elicit.

With `CC[C@H](C)[C@@H]1NC(=O)[C@H](Cc2ccc(O)cc2)NC(=O)[C@@H](N)CSSC[C@@H](C(=O)N2CCC[C@H]2C(=O)N[C@@H](CC(C)C)C(=O)NCC(N)=O)NC(=O)[C@H](CC(N)=O)NC(=O)[C@H](CCC(N)=O)NC1=O` [oxytocin] the “ratings of "trustworthiness" and "attractiveness" of unfamiliar faces” value was “higher ratings”.

Reference: patent US20250367106A1, “Topical Formulation for Improving Skin Quality and Inducing the Release of Oxytocin” (OX Technology IP LLC, priority 2024, published 2025)
